# Test results: article PMC7584476, “Safety and efficacy of BAY1436032 in IDH1-mutant AML: phase I study results” (Leukemia, 2020)
# Tested on: subjects with mIDH1 advanced AML
# Assay: Phase I study: safety and tolerability (TEAE, DLT, MTD, ECG)
# Format: in vivo
# Experimental: This study was an open-label, nonrandomized, multicenter phase I trial. Subjects were screened at 13 hospital sites in 2 countries (USA and Germany). The study was to consist of dose-escalation followed by dose-expansion. The MTD identified in dose-escalation was to be used in the dose-expansion. If MTD was not reached in dose-escalation, a dose for the expansion would be selected based on available PK, pharmacodynamic, safety, and efficacy data. BAY1436032 was administered twice-daily (BID) in continuous 28-day cycles. In dose-escalation, up to 9 evaluable subjects could be enrolled per cohort, with a minimum of 3 dose-limiting toxicity (DLT)-free evaluable subjects required prior to escalating to the next highest dose. Bayesian dose-DLT modeling was performed to help guide dosing decisions.
# DLTs were differentially defined for nonhematopoietic versus hematopoietic toxicities. Nonhematopoietic toxicities of ≥grade 3 occurring during the first cycle of treatment were to be considered DLTs with the following exceptions: (1) Alopecia and nausea controlled by medical management; (2) Tumor lysis syndrome if successfully managed clinically and resolved within 7 days without any end-organ damage; (3) Differentiation syndrome (DS) if successfully managed clinically and resolved within 7 days without any end-organ damage; (4) Asymptomatic ≥grade 3 electrolyte abnormalities not considered clinically significant by the investigator. […] For certain toxicities such as laboratory assessments without a clear clinical correlate, a discussion between the investigator and the sponsor determined whether the adverse event (AE) should be assessed as a DLT.
# DLTs identified during the first cycle of treatment were used to guide dose-escalation decisions and to determine the MTD, and if safety issues appeared in subsequent cycles they were also to be considered. Hydroxyurea was permitted during the first cycle if white blood cell (WBC) exceeded 20 × 10^9/L and was also permitted for treatment of DS.
# Safety and tolerability were evaluated by analysis of adverse events, physical examinations, vital signs, ECOG performance status, and various laboratory assessments. For safety monitoring, subjects were scheduled for clinic visits every week for the initial three cycles of treatment, after which time visits could be reduced to every-other-week with investigator and sponsor agreement. Cardiac function was assessed with triplicate 12-lead electrocardiograms (ECG) at screening, C1-D1, C1-D2, C1-D15, D1 of every subsequent cycle, and at treatment end. […] AEs are presented by the Medical Dictionary for Regulatory Activities (MedDRA) v21.1.
smiles,measurement,setting,value
C[C@H]1C[C@@H](n2c(Nc3ccc(OC(F)(F)F)cc3)nc3cc(CCC(=O)O)ccc32)CC(C)(C)C1 [BAY1436032],TEAE Vomiting Grade 1,"600 mg BID, n=4",1
same,TEAE Weight decreased Grade 1,"600 mg BID, n=4",0
same,TEAE Weight decreased Grade 2,"600 mg BID, n=4",1
same,TEAE Weight decreased Grade 3,"600 mg BID, n=4",0
same,Related TEAE Decreased appetite Grade 1,"1200 mg BID, n=7",0
same,Related TEAE Decreased appetite Grade 2,"1200 mg BID, n=7",0
same,Related TEAE Diarrhea Grade 2,"1200 mg BID, n=7",2
same,Related TEAE Differentiation syndrome Grade 2,"1200 mg BID, n=7",0
same,Related TEAE Differentiation syndrome Grade 3,"1200 mg BID, n=7",1
same,Related TEAE Dyspnea Grade 1,"1200 mg BID, n=7",1
same,Related TEAE Dyspnea Grade 2,"1200 mg BID, n=7",0
same,Related TEAE Fatigue Grade 1,"1200 mg BID, n=7",0
same,Related TEAE Fatigue Grade 2,"1200 mg BID, n=7",1
same,Related TEAE Fatigue Grade 3,"1200 mg BID, n=7",0
same,Related TEAE Hypomagnesaemia Grade 1,"1200 mg BID, n=7",0
same,Related TEAE Nausea Grade 1,"1200 mg BID, n=7",1
same,Related TEAE Nausea Grade 2,"1200 mg BID, n=7",0
same,Related TEAE Sinus tachycardia Grade 1,"1200 mg BID, n=7",0
same,Related TEAE Vomiting Grade 1,"1200 mg BID, n=7",0
same,TEAE Abdominal pain upper Grade 1,"1200 mg BID, n=7",0
same,TEAE Abdominal pain upper Grade 2,"1200 mg BID, n=7",0
same,TEAE Acute kidney injury Grade 1,"1200 mg BID, n=7",0
same,TEAE Acute kidney injury Grade 2,"1200 mg BID, n=7",0
same,TEAE Acute kidney injury Grade 3,"1200 mg BID, n=7",0
same,TEAE Anaemia Grade 3,"1200 mg BID, n=7",3
same,TEAE Anaemia Grade 4,"1200 mg BID, n=7",0
same,TEAE Anxiety Grade 1,"1200 mg BID, n=7",1
same,TEAE Anxiety Grade 2,"1200 mg BID, n=7",0
same,TEAE Arthralgia Grade 1,"1200 mg BID, n=7",0
same,TEAE Arthralgia Grade 2,"1200 mg BID, n=7",1
same,TEAE Constipation Grade 1,"1200 mg BID, n=7",1
same,TEAE Constipation Grade 2,"1200 mg BID, n=7",0
same,TEAE Contusion Grade 1,"1200 mg BID, n=7",1
same,TEAE Contusion Grade 2,"1200 mg BID, n=7",0
same,TEAE Cough Grade 1,"1200 mg BID, n=7",0
same,TEAE Cough Grade 2,"1200 mg BID, n=7",0
same,TEAE Decreased appetite Grade 1,"1200 mg BID, n=7",0
same,TEAE Decreased appetite Grade 2,"1200 mg BID, n=7",1
same,TEAE Decreased appetite Grade 3,"1200 mg BID, n=7",0
same,TEAE Diarrhea Grade 1,"1200 mg BID, n=7",1
same,TEAE Diarrhea Grade 2,"1200 mg BID, n=7",2
same,TEAE Dry skin Grade 1,"1200 mg BID, n=7",1
same,TEAE Dyspnoea Grade 1,"1200 mg BID, n=7",1
same,TEAE Dyspnoea Grade 2,"1200 mg BID, n=7",1
same,TEAE Dyspnoea Grade 3,"1200 mg BID, n=7",0
same,TEAE Epistaxis Grade 1,"1200 mg BID, n=7",0
same,TEAE Epistaxis Grade 2,"1200 mg BID, n=7",2
same,TEAE Epistaxis Grade 3,"1200 mg BID, n=7",0
same,TEAE Fall Grade 1,"1200 mg BID, n=7",1
same,TEAE Fatigue Grade 1,"1200 mg BID, n=7",0
same,TEAE Fatigue Grade 2,"1200 mg BID, n=7",2
same,TEAE Fatigue Grade 3,"1200 mg BID, n=7",0
same,TEAE Febrile neutropenia Grade 3,"1200 mg BID, n=7",2
same,TEAE General physical health deterioration Grade 3,"1200 mg BID, n=7",0
same,TEAE General physical health deterioration Grade 5,"1200 mg BID, n=7",0
same,TEAE Gingivitis Grade 1,"1200 mg BID, n=7",0
same,TEAE Haematuria Grade 1,"1200 mg BID, n=7",1
same,TEAE Haematuria Grade 2,"1200 mg BID, n=7",0
same,TEAE Haematuria Grade 3,"1200 mg BID, n=7",0
same,TEAE Headache Grade 1,"1200 mg BID, n=7",0
same,TEAE Headache Grade 2,"1200 mg BID, n=7",0
same,TEAE Headache Grade 3,"1200 mg BID, n=7",0
same,TEAE Hyperkalaemia Grade 1,"1200 mg BID, n=7",0
same,TEAE Hyperkalaemia Grade 4,"1200 mg BID, n=7",0
same,TEAE Hypertension Grade 2,"1200 mg BID, n=7",0
same,TEAE Hypertension Grade 3,"1200 mg BID, n=7",1
same,TEAE Hyperuricaemia Grade 1,"1200 mg BID, n=7",2
same,TEAE Hyperuricaemia Grade 3,"1200 mg BID, n=7",0
